The experiment addresses T1, human mAChR M4 (Homo sapiens, UniProt P08173).
T1 construct: expressed in transfected cells
T1 sequence (P08173 1-479): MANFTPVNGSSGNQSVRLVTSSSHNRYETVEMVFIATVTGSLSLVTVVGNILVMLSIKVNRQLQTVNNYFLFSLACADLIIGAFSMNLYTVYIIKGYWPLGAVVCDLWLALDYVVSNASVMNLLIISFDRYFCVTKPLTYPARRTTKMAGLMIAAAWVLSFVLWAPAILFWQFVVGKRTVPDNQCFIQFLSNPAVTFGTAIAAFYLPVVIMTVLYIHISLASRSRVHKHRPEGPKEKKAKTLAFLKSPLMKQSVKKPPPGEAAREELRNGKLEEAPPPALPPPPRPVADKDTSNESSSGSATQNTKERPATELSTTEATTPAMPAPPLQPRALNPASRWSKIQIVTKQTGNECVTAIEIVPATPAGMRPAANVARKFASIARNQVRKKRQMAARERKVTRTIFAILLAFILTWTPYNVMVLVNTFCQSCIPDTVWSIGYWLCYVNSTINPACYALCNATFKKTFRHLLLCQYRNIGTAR
The experiment in a line: mAChR M4 cell-based functional assay (calcium mobilization, CHO-K1 hM4-Gqi5 cells). The settings on record: for Emax at 30 µM: CHO-K1, % ACh maximum at 30 μM, human M4; for EC50: increase in the EC20 acetylcholine response, CHO-K1 hM4-Gqi5 cells. The essentials: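 CHO-K1 cells stably expressing human M4 with chimeric Gqi5, loaded with Fluo-4 AM; compounds given as 11-point 1:3 curves and calcium flux read on FDSS at 1 Hz. Acetylcholine EC20 added at 144 s, EC80 at 230 s; agonist, PAM (EC20 potentiation) and antagonist (EC80 inhibition) EC50/Emax from four-parameter fits.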
On the technique in general: Calcium assays in cells follow changes in intracellular calcium, usually with a dye or a luminescent sensor.

Where [1] appears, read: positive allosteric modulator activity, read-out: Human M4 EC50.

Structures are written as SMILES. Where two headings read alike, the source gives them in different places.

For orientation: Emax means the size of the effect at its maximum, as opposed to the concentration needed. As usually defined, the EC50 is the concentration that produces a half-maximal response. Turning to `Cc1nc(Cl)c(C)c(N2CCc3ncc(-c4c(C)nn(C)c4C)cc3C2)n1` [compound 193, 6-(6-chloro-2,5-dimethyl-pyrimidin-4-yl)-3-(1,3,5-trimethylpyrazol-4-yl)-7,8-dihydro-5H-1,6-naphthyridine], the Emax at 30 µM turned out to be 82%. Besides, the EC50 under setting [1] worked out at 605 nM.
For the compound `Cc1nn(C)cc1-c1cnc2c(c1)CN(c1nc(NC3CC3)nc(C)c1C)CC2` [compound 272, N-cyclopropyl-4-(3-(1,3-dimethyl-1H-pyrazol-4-yl)-7,8-dihydro-1,6-naphthyridin-6(5H)-yl)-5,6-dimethylpyrimidin-2-amine], the Emax at 30 µM was 78%. The EC50 under setting [1] stood at 466 nM.
Consider `Cc1cc(C#N)cnc1N1CCc2ncc(-c3cccnc3)cc2C1` [compound 191, 5-methyl-6-[3-(3-pyridyl)-7,8-dihydro-5H-1,6-naphthyridin-6-yl]pyridine-3-carbonitrile], for which the Emax at 30 µM was 98%. Further, the EC50 under setting [1] was 187 nM.
Taken in the same sequence, the figures for `Cc1cc(C(=O)NCc2nc3ccccc3s2)cnc1N1CCc2ncccc2C1` [compound 125, N-(1,3-benzothiazol-2-ylmethyl)-6-(7,8-dihydro-5H-1,6-naphthyridin-6-yl)-5-methyl-pyridine-3-carboxamide] were 78% and 856 nM.
The matching figures for `Cc1c(C#N)nnc(N2CCc3ncc(Cc4ccccc4F)cc3C2)c1C` [Example 369, 6-(3-(2-fluorobenzyl)-7,8-dihydro-1,6-naphthyridin-6(5H)-yl)-4,5-dimethylpyridazine-3-carbonitrile]: 63% and 424 nM.
Taken in the same sequence, the figures for `Cc1cc(Nc2cnc3c(c2)CN(c2ncc(C#N)cc2C)CC3)n(C(C)C)n1` [Example 316, 6-(3-((1-isopropyl-3-methyl-1H-pyrazol-5-yl)amino)-7,8-dihydro-1,6-naphthyridin-6(5H)-yl)-5-methylnicotinonitrile] were 57% and 689 nM.
For `Cc1cc(C#N)cnc1N1CCc2ncc(-n3ccnc3)cc2C1` [Example 343, 6-(3-(1H-imidazol-1-yl)-7,8-dihydro-1,6-naphthyridin-6(5H)-yl)-5-methylnicotinonitrile], the Emax at 30 µM came out at 97%. For the same compound, under setting [1], the EC50 is 226 nM.
On to `Cc1cc(C(=O)N2CC(CO)(CO)C2)nnc1N1CCc2ncc(CC(F)(F)F)cc2C1` [Example 584, (3,3-bis(hydroxymethyl)azetidin-1-yl)(5-methyl-6-(3-(2,2,2-trifluoroethyl)-7,8-dihydro-1,6-naphthyridin-6(5H)-yl)pyridazin-3-yl)methanone], for which the Emax at 30 µM is 91%. Also, under setting [1], the EC50 was 533 nM.
With `Cc1cc(C(=O)NCc2csc3ccccc23)cnc1N1CCc2ncccc2C1` [compound 128, N-(benzothiophen-3-ylmethyl)-6-(7,8-dihydro-5H-1,6-naphthyridin-6-yl)-5-methyl-pyridine-3-carboxamide], the Emax at 30 µM was determined as 74%. For the same compound, the EC50 under setting [1] came out at 1150 nM.
On to `Cc1cc(C(=O)N2CCC(c3ccncc3)C2)nnc1N1CCc2ncc(N3CCCn4nccc43)cc2C1` (stereo not shown) [Example 521, (6-(3-(6,7-dihydropyrazolo[1,5-a]pyrimidin-4(5H)-yl)-7,8-dihydro-1,6-naphthyridin-6(5H)-yl)-5-methylpyridazin-3-yl)(3-(pyridin-4-yl)pyrrolidin-1-yl)methanone], for which the Emax at 30 µM is 99%. The EC50 under setting [1] amounted to 98 nM.
Regarding `Clc1nc2c(c(N3CCc4ncc(-c5cnn(C6CC6)c5)cc4C3)n1)COC2` [compound 286, 2-chloro-4-(3-(1-cyclopropyl-1H-pyrazol-4-yl)-7,8-dihydro-1,6-naphthyridin-6(5H)-yl)-5,7-dihydrofuro[3,4-d]pyrimidine], the Emax at 30 µM was found to be 33%. In addition, under setting [1], the EC50 was determined as 504 nM.
Taken in the same sequence, the figures for `Cc1nc(Cl)c(C)c(N2CCc3ncc(-c4cnn(C)c4)cc3C2)n1` [compound 92, 6-(6-chloro-2,5-dimethyl-pyrimidin-4-yl)-3-(1-methylpyrazol-4-yl)-7,8-dihydro-5H-1,6-naphthyridine] were 82% and 218 nM.
The matching figures for `Cc1nc(C)c(C)c(N2CCc3ncc(-c4ccc(F)nc4)cc3C2)n1` [compound 229, 3-(6-fluoropyridin-3-yl)-6-(2,5,6-trimethylpyrimidin-4-yl)-5,6,7,8-tetrahydro-1,6-naphthyridine]: 59% and 332 nM.
In the case of `Cc1cnccc1CNC(=O)c1nnc(N2CCc3ncc(C(F)(F)F)cc3C2)c(C)c1C` [Example 464, 4,5-dimethyl-N-((3-methylpyridin-4-yl)methyl)-6-(3-(trifluoromethyl)-7,8-dihydro-1,6-naphthyridin-6(5H)-yl)pyridazine-3-carboxamide], the maximal response (Emax) at 30 µM turned out to be 101%. Also, the EC50 under setting [1] is 36 nM.
With `Cc1cc(C(=O)NCc2ccncc2)cnc1N1CCc2ncc(-c3ccc(C4CC4)nc3)cc2C1` [Example 483, 6-(3-(6-cyclopropylpyridin-3-yl)-7,8-dihydro-1,6-naphthyridin-6(5H)-yl)-5-methyl-N-(pyridin-4-ylmethyl)nicotinamide], the Emax at 30 µM came out at 84%. Also, under setting [1], the EC50 turned out to be 313 nM.
With `Cc1ccc(-c2cnc3c(c2)CN(c2nnc(C#N)cc2C)CC3)cn1` [Example 392, 5-methyl-6-(3-(6-methylpyridin-3-yl)-7,8-dihydro-1,6-naphthyridin-6(5H)-yl)pyridazine-3-carbonitrile], the Emax at 30 µM amounted to 85%. For the same compound, the EC50 under setting [1] amounted to 458 nM.
As for `Cc1cc(C#N)cnc1N1CCc2ncc(-c3cc(F)ncc3F)cc2C1` [Example 337, 6-(3-(2,5-difluoropyridin-4-yl)-7,8-dihydro-1,6-naphthyridin-6(5H)-yl)-5-methylnicotinonitrile], the Emax at 30 µM was 71%. Besides, the EC50 under setting [1] stood at 270 nM.
Taken in the same sequence, the figures for `Cc1cc(C#N)cnc1N1CCc2ncc(-c3c(C)nn(C)c3C)cc2C1` [compound 107, 5-methyl-6-[3-(1,3,5-trimethylpyrazol-4-yl)-7,8-dihydro-5H-1,6-naphthyridin-6-yl]pyridine-3-carbonitrile] were 98% and 142 nM.
As to `Cc1c(C(=O)NCc2ccncc2)nnc(N2CCc3ncc(Nc4ccccc4F)cc3C2)c1C` [compound 190, 6-[3-(2-fluoroanilino)-7,8-dihydro-5H-1,6-naphthyridin-6-yl]-4,5-dimethyl-N-(4-pyridylmethyl)pyridazine-3-carboxamide], the Emax at 30 µM turned out to be 105%. Moreover, the EC50 under setting [1] is 136 nM.
As for `Cc1cc(C(=O)N2CC(F)(F)C2)nnc1N1CCc2ncc(N3CCO[C@H](C)C3)cc2C1` [Example 539, (R)-(3,3-difluoroazetidin-1-yl)(5-methyl-6-(3-(2-methylmorpholino)-7,8-dihydro-1,6-naphthyridin-6(5H)-yl)pyridazin-3-yl)methanone], the Emax at 30 µM stood at 101%. Under setting [1], the EC50 stood at 51 nM.
Consider `Cc1nc(Cl)nc(N2CCc3ncc(C4CC4)cc3C2)c1C` [compound 254, 6-(2-chloro-5,6-dimethylpyrimidin-4-yl)-3-cyclopropyl-5,6,7,8-tetrahydro-1,6-naphthyridine], for which the Emax (CHO-K1) was 95%. For the same compound, the EC50 (Human M4 EC50, positive allosteric modulator activity) worked out at 70 nM.
Turning to `Cc1cnc2c(c1)CN(c1nnc(C(=O)Nc3ccncc3)c(C)c1C)CC2` [Example 469, 4,5-dimethyl-6-(3-methyl-7,8-dihydro-1,6-naphthyridin-6(5H)-yl)-N-(pyridin-4-yl)pyridazine-3-carboxamide], the Emax at 30 µM was determined as 98%. The EC50 under setting [1] is 114 nM.
Taken in the same sequence, the figures for `Cc1c(C#N)nnc(N2CCc3ncc(-c4cnc(Cl)c(F)c4)cc3C2)c1C` [compound 51, 6-[3-(6-chloro-5-fluoro-3-pyridyl)-7,8-dihydro-5H-1,6-naphthyridin-6-yl]-4,5-dimethyl-pyridazine-3-carbonitrile] were 61% and 778 nM.
The matching figures for `Cc1cc(C(=O)NC2CC(F)(F)C2)cnc1N1CCc2ncc(-c3cn(C)nc3C)cc2C1` [Example 476, N-(3,3-difluorocyclobutyl)-6-(3-(1,3-dimethyl-1H-pyrazol-4-yl)-7,8-dihydro-1,6-naphthyridin-6(5H)-yl)-5-methylnicotinamide]: 67% and 752 nM.
Taken in the same sequence, the figures for `Cc1cc(C(=O)NCc2ccc3c(c2)CCS3(=O)=O)cnc1N1CCc2ncccc2C1` [compound 164, 6-(7,8-dihydro-5H-1,6-naphthyridin-6-yl)-N-[(1,1-dioxo-2,3-dihydrobenzothiophen-5-yl)methyl]-5-methyl-pyridine-3-carboxamide] were 54% and no less than 10000 nM.
Regarding `Cc1cc(C(=O)N2CCCC2)nnc1N1CCc2ncc(N3CCCn4nccc43)cc2C1` [Example 488, (6-(3-(6,7-dihydropyrazolo[1,5-a]pyrimidin-4(5H)-yl)-7,8-dihydro-1,6-naphthyridin-6(5H)-yl)-5-methylpyridazin-3-yl)(pyrrolidin-1-yl)methanone], the Emax at 30 µM is 89%. For the same compound, the EC50 under setting [1] was 217 nM.

Values taken from patent publication US20250230155A1 (Vanderbilt University, priority 2021, published 2025).
